Among the data in patent publication US20130310379A1, “MODULATORS OF METHYL MODIFYING ENZYMES, COMPOSITIONS AND USES THEREOF” (CONSTELLATION PHARMACEUTICALS, priority 2010, published 2013) are IC50 values, retold here.

The target in the test is EZH2 (Homo sapiens, UniProt Q15910). Briefly: EZH2 assay: rPRC2 with biotinylated oligonucleosome substrates and 3H SAM, FlashPlate scintillation counting, IC50. It counts as biochemical. Particulars: rPRC2, biotinylated oligonucleosome substrates, 3H SAM; read-out: EZH2 IC50. A digest of the protocol: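 rPRC2 (2 nM EZH2) pre-incubated 20 min with compound (80 to 0.16 uM, ten 2-fold steps), then 60 min reaction with 0.2 uM 3H SAM, 0.2 uM biotinylated oligonucleosomes, 3.6 uM H3K27me3 peptide in Tris pH 8.5. SAH/EDTA quench; 4-parameter IC50 fit.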
Chain of EZH2 (Q15910 whole entry): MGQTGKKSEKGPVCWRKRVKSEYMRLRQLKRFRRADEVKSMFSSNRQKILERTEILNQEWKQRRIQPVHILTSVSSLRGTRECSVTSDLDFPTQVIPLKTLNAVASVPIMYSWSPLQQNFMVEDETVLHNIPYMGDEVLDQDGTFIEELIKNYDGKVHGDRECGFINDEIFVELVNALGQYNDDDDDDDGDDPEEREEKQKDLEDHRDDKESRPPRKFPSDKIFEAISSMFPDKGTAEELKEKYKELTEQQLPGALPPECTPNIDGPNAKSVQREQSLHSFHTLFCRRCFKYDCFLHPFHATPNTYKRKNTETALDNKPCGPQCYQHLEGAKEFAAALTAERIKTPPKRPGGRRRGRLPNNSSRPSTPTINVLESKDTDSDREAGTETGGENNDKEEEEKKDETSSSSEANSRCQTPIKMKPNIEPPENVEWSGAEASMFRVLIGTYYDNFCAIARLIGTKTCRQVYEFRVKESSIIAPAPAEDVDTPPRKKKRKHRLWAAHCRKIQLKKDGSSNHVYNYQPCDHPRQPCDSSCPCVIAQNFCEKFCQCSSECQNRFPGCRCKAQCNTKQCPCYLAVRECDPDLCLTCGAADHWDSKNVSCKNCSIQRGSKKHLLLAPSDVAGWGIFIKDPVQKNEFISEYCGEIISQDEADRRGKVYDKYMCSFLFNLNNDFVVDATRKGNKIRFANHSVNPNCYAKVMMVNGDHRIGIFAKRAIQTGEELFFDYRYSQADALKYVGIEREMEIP
Chain of EZH2 (O75530 whole entry partner): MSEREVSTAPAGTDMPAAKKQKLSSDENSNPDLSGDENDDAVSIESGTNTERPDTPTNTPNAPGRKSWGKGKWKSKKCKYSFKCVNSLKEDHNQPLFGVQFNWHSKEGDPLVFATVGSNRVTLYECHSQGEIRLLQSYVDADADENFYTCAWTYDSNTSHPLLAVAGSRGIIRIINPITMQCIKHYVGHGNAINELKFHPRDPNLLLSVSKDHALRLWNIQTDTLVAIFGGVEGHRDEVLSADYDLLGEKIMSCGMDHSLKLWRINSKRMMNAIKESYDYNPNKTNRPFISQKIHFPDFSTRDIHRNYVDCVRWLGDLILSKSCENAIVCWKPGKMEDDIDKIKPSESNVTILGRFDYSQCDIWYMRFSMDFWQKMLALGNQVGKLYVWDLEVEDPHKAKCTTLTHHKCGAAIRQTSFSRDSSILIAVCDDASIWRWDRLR
Chain of EZH2 (Q15022 whole entry partner): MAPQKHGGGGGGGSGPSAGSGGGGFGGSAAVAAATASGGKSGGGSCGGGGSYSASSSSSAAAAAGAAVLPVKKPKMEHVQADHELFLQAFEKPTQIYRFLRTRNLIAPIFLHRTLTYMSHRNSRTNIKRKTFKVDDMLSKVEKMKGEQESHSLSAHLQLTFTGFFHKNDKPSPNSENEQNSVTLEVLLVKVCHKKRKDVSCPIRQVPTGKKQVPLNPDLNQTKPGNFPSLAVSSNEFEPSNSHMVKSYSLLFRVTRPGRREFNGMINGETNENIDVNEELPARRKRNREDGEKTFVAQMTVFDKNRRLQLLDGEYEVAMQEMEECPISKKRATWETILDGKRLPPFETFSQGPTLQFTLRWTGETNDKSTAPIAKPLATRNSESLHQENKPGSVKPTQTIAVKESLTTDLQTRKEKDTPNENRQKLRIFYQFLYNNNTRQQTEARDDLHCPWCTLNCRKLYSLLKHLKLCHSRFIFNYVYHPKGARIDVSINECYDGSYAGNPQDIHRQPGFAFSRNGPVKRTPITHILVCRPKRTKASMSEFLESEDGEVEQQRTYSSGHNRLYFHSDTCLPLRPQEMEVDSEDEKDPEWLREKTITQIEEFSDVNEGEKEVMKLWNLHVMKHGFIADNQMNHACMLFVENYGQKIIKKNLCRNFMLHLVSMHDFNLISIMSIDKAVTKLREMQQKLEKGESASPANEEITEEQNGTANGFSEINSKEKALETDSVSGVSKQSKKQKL
Turning to `CC1(C)CC(NC(=O)c2ccc3cc(Oc4ccccc4C#N)ccc3c2)CC(C)(C)N1` [Compound I-200], the IC50 is 20 to 80 µM.
Under `CC1(C)CC(NC(=O)c2ccc(Oc3ccccc3-c3cccnc3N)c(Cl)c2)CC(C)(C)N1` [Compound I-271] stands 5 to 20 µM; under `CNCc1ccccc1Oc1ccc(C(=O)NC2CC(C)(C)NC(C)(C)C2)cc1` [Compound I-274], greater than 80 µM.
For the compound `COc1ncccc1-c1ccccc1Oc1ccc(C(=O)NC2CC(C)(C)NC(C)(C)C2)cc1Cl` [Compound I-321], the IC50 is greater than 80 µM.
Under `CC1(C)CC(NC(=O)c2ccc(Oc3ccc(Br)cc3)cc2)CC(C)(C)N1` [Compound I-93] stands greater than 80 µM; under `CC1(C)CC(NC(=O)c2ccc(Oc3cccc(C(N)=O)c3C#N)c(Cl)c2)CC(C)(C)N1` [Compound I-394], 5 to 20 µM; under `CC1(C)CC(NC(=O)c2ccc(COc3cccc4cnccc34)cc2)CC(C)(C)N1` [Compound I-182], 5 to 20 µM.
Under `CCc1ccccc1Oc1ccc(C(=O)NC2CC(C)(C)NC(C)(C)C2)cc1` [Compound I-35] stands 20 to 80 µM.
On to `CC1(C)CC(NC(=O)c2ccc(Oc3ccccc3C#N)c(Cl)c2)CCN1` (stereo not shown) [Compound I-503], for which the concentration for half-maximal inhibition (IC50) was in the range of 5 to 20 µM.
The result for `CC1(C)CC(NC(=O)c2ccc(Oc3ccccc3)c(O)c2)CC(C)(C)N1` [Compound I-268] reads 20 to 80 µM.
The result for `CC(Cc1cccc(Oc2ccc(C(=O)NC3CC(C)(C)NC(C)(C)C3)cc2Cl)c1C#N)C(N)=O` (stereo not shown) [Compound I-559] reads less than 5 µM; that for `Cc1cccc(OCc2ccc(C(=O)NC3CC(C)(C)NC(C)(C)C3)cc2)c1C` [Compound I-54], 20 to 80 µM.
Consider `CC1(C)CC(NC(=O)c2ccc(CSc3ccccc3)cc2)CC(C)(C)N1` [Compound I-83], for which the concentration for half-maximal inhibition (IC50) is greater than 80 µM.
The result for `CC1(C)CC(NC(=O)c2ccc(Oc3cccc(-c4cncc(F)c4)c3C#N)c(Cl)c2)CC(C)(C)N1` [Compound I-528] reads less than 5 µM.
Turning to `CN(C(=O)c1ccc(Oc2ccccc2)cc1)C1CCNCC1` [Compound I-125, N-Methyl-4-phenoxy-N-(piperidin-4-yl)benzamide 2,2,2-trifluoroacetate], the 50% inhibitory concentration (IC50) is greater than 80 µM.
For `Cc1ccncc1-c1cccc(Oc2ccc(C(=O)NC3CC(C)(C)NC(C)(C)C3)cc2Cl)c1C#N` [Compound I-365], the concentration for half-maximal inhibition (IC50) is less than 5 µM.
The result for `Cn1cc(-c2ccccc2Oc2ccc(C(=O)NC3CC(C)(C)NC(C)(C)C3)cc2Cl)nn1` [Compound I-363] reads less than 5 µM; that for `CC1(C)CC(C(=O)Nc2ccc(Oc3ccccc3)cc2)CC(C)(C)N1` [Compound I-192], greater than 80 µM; that for `CC1(C)CC(NC(=O)c2ccc(Oc3cccc(-c4cnn(CC(=O)O)c4)c3C#N)c(Cl)c2)CC(C)(C)N1` [Compound I-374], less than 5 µM.
Under `COc1cncc(-c2ccccc2Oc2ccc(C(=O)NC3CC(C)(C)NC(C)(C)C3)cc2Cl)c1` [Compound I-288] stands less than 5 µM; under `CC(O)c1ccccc1Oc1ccc(C(=O)NC2CC(C)(C)NC(C)(C)C2)cc1` (stereo not shown) [Compound I-287], 20 to 80 µM; under `COc1ccc(Oc2ccc(C(=O)NC3CC(C)(C)NC(C)(C)C3)cc2)cc1` [Compound I-97], greater than 80 µM.
Regarding `CN1CCN(c2ccc(-c3cccc(Oc4ccc(C(=O)NC5CC(C)(C)NC(C)(C)C5)cc4Cl)c3C#N)cn2)CC1` [Compound I-550], the concentration for half-maximal inhibition (IC50) was less than 5 µM.
Under `CC1(C)CC(NC(=O)c2ccc(OCc3ccccc3F)cc2)CC(C)(C)N1` [Compound I-90] stands greater than 80 µM.
Under `CC1(C)CC(NC(=O)c2ccc(OC3CCNC3)c(Cl)c2)CC(C)(C)N1` (stereo not shown) [Compound I-411] stands greater than 80 µM; under `Cc1cccc(Oc2ccc(C(=O)NC3CC(C)(C)NC(C)(C)C3)cc2Cl)c1C#N` [Compound I-309], less than 5 µM; under `CC1(C)CC(NC(=O)c2ccc(Oc3ccccc3C(N)=O)c(Br)c2)CC(C)(C)N1` [Compound I-388], 5 to 20 µM.
For the compound `CCOC(=O)N1CCC(NC(=O)c2ccc(Oc3ccccc3C#N)c(Cl)c2)CC1` [Compound I-281], the half-maximal inhibitory concentration (IC50) is greater than 80 µM.
Under `CC1CC(NC(=O)c2ccc(Oc3cccc(-c4ccnnc4)c3C#N)c(Cl)c2)CC(C)N1` (stereo not shown) [Compound I-472] stands less than 5 µM; under `COc1cc(-c2cccc(Oc3ccc(C(=O)NC4CC(C)(C)NC(C)(C)C4)cc3Cl)c2C#N)ccn1` [Compound I-500], less than 5 µM; under `CC1(C)CC(NC(=O)c2ccc(Oc3ccncc3C#N)c(Cl)c2)CC(C)(C)N1` [Compound I-349], 5 to 20 µM.
For `COc1cc(Oc2ccccc2)ccc1C(=O)NC1CC(C)(C)NC(C)(C)C1` [Compound I-204], the IC50 is greater than 80 µM.
On to `N#CCCN1CCC(NC(=O)c2ccc(Oc3cccc(-c4ccnnc4)c3C#N)c(Cl)c2)CC1` [Compound I-485], for which the IC50 is 20 to 80 µM.
Under `CC1(C)CC(NC(=O)c2ccc(COc3cccc4c3CCCC4)cc2)CC(C)(C)N1` [Compound I-188] stands less than 5 µM; under `CC1(C)CC(NC(=O)c2ccc(Oc3ccccc3-c3nn[nH]n3)c(Cl)c2)CC(C)(C)N1` [Compound I-313], greater than 80 µM; under `CC1(C)CC(NC(=O)c2ccc(Oc3ccccc3C#N)c(N3CCOCC3)c2)CC(C)(C)N1` [Compound I-196], less than 5 µM.
Under `CC1(C)CC(NC(=O)c2ccc(Oc3ccc(F)cc3C#N)c(Cl)c2)CC(C)(C)N1` [Compound I-359] stands 5 to 20 µM; under `N#CCN1CCC(NC(=O)c2ccc(Oc3cccc(-c4ccnnc4)c3C#N)c(Cl)c2)CC1` [Compound I-475], greater than 80 µM.
Under `CC1(C)CC(NC(=O)c2ccc(Oc3cccc(C4CCNCC4)c3C#N)c(Cl)c2)CC(C)(C)N1` [Compound I-535] stands less than 5 µM.
Take `CC1(C)CC(NC(=O)c2ccc(COc3cccc(-c4cncc(C#N)c4)c3)cc2)CC(C)(C)N1` [Compound I-33]: the concentration for half-maximal inhibition (IC50) was in the range of 20 to 80 µM.
The result for `CC1(C)CC(NC(=O)c2ccc(-n3cccn3)c(Cl)c2)CC(C)(C)N1` [Compound I-496] reads greater than 80 µM; that for `CC1(C)CC(NC(=O)c2ccc(Oc3cccc(-c4ccn[nH]4)c3C#N)c(Cl)c2)CC(C)(C)N1` [Compound I-338], less than 5 µM; that for `O=C(NC1CCCCC1)c1ccc(Oc2ccccc2)cc1` [Compound I-134], greater than 80 µM.
Under `Cc1ccc(OCc2ccc(C(=O)NC3CC(C)(C)NC(C)(C)C3)cc2)cc1` [Compound I-22] stands 20 to 80 µM; under `N#Cc1ccccc1Oc1ccc(C(=O)NC2CCNCC2)cc1Cl` [Compound I-178], greater than 80 µM; under `CC1(C)CC(NC(=O)c2ccc(Oc3cccc(-c4cnc(N)nc4)c3)cc2)CC(C)(C)N1` [Compound I-251], 20 to 80 µM.
Turning to `CN1CCC(NC(=O)c2ccc(Oc3ccccc3)cc2)CC1` [Compound I-113], the IC50 was greater than 80 µM.
Under `Cc1noc(C)c1-c1cccc(Oc2ccc(C(=O)NC3CC(C)(C)NC(C)(C)C3)cc2Cl)c1C#N` [Compound I-463] stands less than 5 µM; under `CC1(C)CC(NC(=O)c2ccc(Oc3ncccc3F)cc2)CC(C)(C)N1` [Compound I-110], greater than 80 µM; under `CC1(C)CC(NC(=O)c2ccc([S+]([O-])c3ccccc3)cc2)CC(C)(C)N1` (stereo not shown) [Compound I-355], greater than 80 µM.
Consider `COC(=O)c1ccc(-c2ccccc2Oc2ccc(C(=O)NC3CC(C)(C)NC(C)(C)C3)cc2Cl)cn1` [Compound I-294], for which the half-maximal inhibitory concentration (IC50) was less than 5 µM.
As to `Cc1ccc(-c2cccc(OCc3ccc(C(=O)NC4CC(C)(C)NC(C)(C)C4)cc3)c2)s1` [Compound I-18], the half-maximal inhibitory concentration (IC50) fell in the range of 5 to 20 µM.
The result for `COC(C)c1cccc(Oc2ccc(C(=O)NC3CC(C)(C)NC(C)(C)C3)cc2Cl)c1C#N` (stereo not shown) [Compound I-420] reads less than 5 µM; that for `CC1(C)CC(NC(=O)c2ccc(Oc3cccc(CN4CCCCC4=O)c3)c(Cl)c2)CC(C)(C)N1` [Compound I-446], 5 to 20 µM.
Under `Cc1cccc(Oc2ccc(C(=O)NC3CC(C)(C)NC(C)(C)C3)cc2)c1` [Compound I-60] stands 20 to 80 µM; under `CC1(C)CC(NC(=O)c2ccc(Oc3ccccc3OCc3ccccc3)cc2)CC(C)(C)N1` [Compound I-152], less than 5 µM.
In the case of `CC1(C)CC(NC(=O)c2ccc(Oc3ccccc3N3CCOCC3)cc2)CC(C)(C)N1` [Compound I-44], the 50% inhibitory concentration (IC50) is 20 to 80 µM.
Consider `CC1(C)CC(NC(=O)c2ccc(OCc3ccccc3)cc2)CC(C)(C)N1` [Compound I-75], for which the IC50 was greater than 80 µM.
Take `CC1(C)CC(NC(=O)c2cccc(-c3ccccc3)c2)CC(C)(C)N1` [Compound I-105]: the half-maximal inhibitory concentration (IC50) was greater than 80 µM.
Regarding `CC1(C)CC(NC(=O)c2ccc(Oc3cccc(-c4cnn(CC(N)=O)c4)c3C#N)c(Cl)c2)CC(C)(C)N1` [Compound I-386], the IC50 is less than 5 µM.
The result for `Cc1cc(C(=O)NC2CC(C)(C)NC(C)(C)C2)ccc1Oc1ccccc1` [Compound I-24] reads 20 to 80 µM; that for `CC(=O)N1CCC(c2cccc(Oc3ccc(C(=O)NC4CC(C)(C)NC(C)(C)C4)cc3Cl)c2C#N)CC1` [Compound I-537], less than 5 µM; that for `Cc1ncccc1Oc1ccc(C(=O)NC2CC(C)(C)NC(C)(C)C2)cc1` [Compound I-20], 5 to 20 µM.
The result for `COc1ccc(Oc2ccc(C(=O)NC3CC(C)(C)NC(C)(C)C3)cc2)c(C(=O)O)c1` [Compound I-120, 2-(4-(2,2,6,6-tetramethylpiperidin-4-ylcarbamoyl)phenoxy)-5-methoxy benzoic acid] reads greater than 80 µM.
The result for `CNC(=O)c1ccccc1Oc1ccc(C(=O)NC2CC(C)(C)NC(C)(C)C2)cc1Cl` [Compound I-285] reads 20 to 80 µM.
Consider `Cc1ccc(Oc2ccc(C(=O)NC3CC(C)(C)NC(C)(C)C3)cc2)cn1` [Compound I-89], for which the IC50 is greater than 80 µM.
The result for `CC1(C)CC(NC(=O)c2ccc(Oc3ccc(F)cc3)cc2)CC(C)(C)N1` [Compound I-86] reads greater than 80 µM.

What is called IC50 is the midpoint of a concentration-inhibition curve.
